Test results published in ChEMBL document CHEMBL1795286, “A concise synthesis and antimicrobial activities of 3-polyamino-23,24-bisnorcholanes as steroid-polyamine conjugates” (2011).

What was measured:
Staphylococcus aureus [1] = test: Antimicrobial activity against Staphylococcus aureus ATCC 25923 after 18 hrs by twofold agar dilution method; format: functional; details: ATCC 25923, 18 h
Citrobacter koseri = test: Antimicrobial activity against Citrobacter diversus 2046 after 18 hrs by twofold agar dilution method; format: functional; details: Citrobacter koseri, 2046, 18 h
Escherichia coli [2] = test: Antimicrobial activity against Escherichia coli ATCC 10536 after 18 hrs by twofold agar dilution method; format: functional; details: ATCC 10536, 18 h
Proteus vulgaris = test: Antimicrobial activity against Proteus vulgaris 6059 after 18 hrs by twofold agar dilution method; format: functional; details: Proteus vulgaris, 6059, 18 h
Moraxella catarrhalis [3] = test: Antimicrobial activity against Moraxella catarrhalis C2431 after 18 hrs by twofold agar dilution method; format: functional; details: C2431, 18 h
Morganella morganii = test: Antimicrobial activity against Morganella morganii 1375E after 18 hrs by twofold agar dilution method; format: functional
Klebsiella aerogenes = test: Antimicrobial activity against Klebsiella aerogenes harboring beta-lactamase SHV-1 1976E mutant after 18 hrs by twofold agar dilution method; format: functional
Staphylococcus aureus [4] = test: Antimicrobial activity against Staphylococcus aureus giorgio after 18 hrs by twofold agar dilution method; format: functional
Salmonella typhimurium [5] = test: Antimicrobial activity against Salmonella Typhimurium ATCC 14028 after 18 hrs by two-fold agar dilution method; format: functional, Salmonella enterica subsp. enterica serovar Typhimurium; details: Salmonella enterica, ATCC 14028, 18 h
[6] = test system: Staphylococcus epidermidis; test: Antimicrobial activity against Staphylococcus epidermidis 887E after 18 hrs by twofold agar dilution method; format: functional; details: read-out: MIC
Escherichia coli [7] = test: Antimicrobial activity against Escherichia coli 851E after 18 hrs by twofold agar dilution method; format: functional
Moraxella catarrhalis [8] = test: Antimicrobial activity against Moraxella catarrhalis 25240 after 18 hrs by twofold agar dilution method; format: functional; details: Moraxella catarrhalis, 25240, 18 h
Micrococcus luteus = test: Antimicrobial activity against Micrococcus luteus ATCC 9341 after 18 hrs by twofold agar dilution method; format: functional; details: ATCC 9341, 18 h, read-out: MIC
Klebsiella pneumoniae = test: Antimicrobial activity against Klebsiella pneumoniae 2011E after 18 hrs by twofold agar dilution method; format: functional
Staphylococcus aureus [9] = test: Antimicrobial activity against Staphylococcus aureus 77 after 18 hrs by twofold agar dilution method; format: functional; details: Staphylococcus aureus, 77, 18 h
Serratia marcescens [10] = test: Antimicrobial activity against Serratia marcescens ATCC 27117 after 18 hrs by twofold agar dilution method; format: functional; details: ATCC 27117, 18 h
Enterobacter cloacae [11] = test: Antimicrobial activity against Enterobacter cloacae P99 after 18 hrs by twofold agar dilution method; format: functional; details: P99, 18 h
Staphylococcus aureus [12] = test: Antimicrobial activity against Staphylococcus aureus ATCC 6538P after 18 hrs by twofold agar dilution method; format: functional
Citrobacter freundii = test: Antimicrobial activity against Citrobacter freundii 8090 after 18 hrs by twofold agar dilution method; format: functional; details: Citrobacter freundii, 8090, 18 h
Bacillus licheniformis = test: Antimicrobial activity against Bacillus licheniformis EMR after 18 hrs by twofold agar dilution method; format: functional; details: read-out: MIC
Salmonella typhimurium [13] = test: Antimicrobial activity against Salmonella typhimurium ATCC 13311 after 18 hrs by twofold agar dilution method; format: functional, Salmonella enterica subsp. enterica serovar Typhimurium; details: Salmonella enterica, ATCC 13311, 18 h
Enterobacter cloacae [14] = test: Antimicrobial activity against Enterobacter cloacae ATCC 27508 after 18 hrs by twofold agar dilution method; format: functional; details: ATCC 27508, 18 h
[15] = test system: Acinetobacter calcoaceticus; test: Antimicrobial activity against Acinetobacter calcoaceticus ATCC 15473 after 18 hrs by twofold agar dilution method; format: functional; details: ATCC 15473, 18 h
Escherichia coli [16] = test: Antimicrobial activity against Escherichia coli ATCC 25922 after 18 hrs by twofold agar dilution method; format: functional; details: ATCC 25922, 18 h
Enterococcus faecalis = test: Antimicrobial activity against Enterococcus faecalis ATCC 29212 after 18 hrs by twofold agar dilution method; format: functional; details: ATCC 29212, 18 h, read-out: MIC
Bacillus cereus = test: Antimicrobial activity against Bacillus cereus ATCC 27348 after 18 hrs by twofold agar dilution method; format: functional; details: ATCC 27348, 18 h
Staphylococcus aureus [17] = test: Antimicrobial activity against Staphylococcus aureus 241 after 18 hrs by twofold agar dilution method; format: functional; details: Staphylococcus aureus, 241, 18 h; read-out: MIC
Escherichia coli [18] = test: Antimicrobial activity against Escherichia coli 3190Y after 18 hrs by twofold agar dilution method; format: functional
Pseudomonas aeruginosa = test: Antimicrobial activity against Pseudomonas aeruginosa 6065Y after 18 hrs by twofold agar dilution method; format: functional
Serratia marcescens [19] = test: Antimicrobial activity against Serratia marcescens 1826E after 18 hrs by twofold agar dilution method; format: functional
Bacillus subtilis = test: Antimicrobial activity against Bacillus subtilis ATCC 6633 after 18 hrs by twofold agar dilution method; format: functional; details: ATCC 6633, 18 h

Row | SMILES | MIC (Citrobacter koseri) [µg/mL] | MIC (Proteus vulgaris) [µg/mL] | MIC (Morganella morganii) [µg/mL] | MIC (Klebsiella aerogenes) [µg/mL] | MIC (Staphylococcus aureus [4]) [µg/mL] | MIC (Salmonella typhimurium [5]) [µg/mL] | MIC [6] [µg/mL] | MIC (Escherichia coli [7]) [µg/mL] | MIC (Micrococcus luteus) [µg/mL] | MIC (Klebsiella pneumoniae) [µg/mL] | MIC (Serratia marcescens [10]) [µg/mL] | MIC (Enterobacter cloacae [11]) [µg/mL] | MIC (Staphylococcus aureus [12]) [µg/mL] | MIC (Citrobacter freundii) [µg/mL] | MIC (Bacillus licheniformis) [µg/mL] | MIC (Salmonella typhimurium [13]) [µg/mL] | MIC (Enterobacter cloacae [14]) [µg/mL] | MIC [15] [µg/mL] | MIC (Enterococcus faecalis) [µg/mL] | MIC (Staphylococcus aureus [17]) [µg/mL] | further results
1 | C[C@H](CO)[C@H]1CC[C@H]2[C@@H]3[C@H](F)C[C@H]4C[C@@H](NCCCNCCCCN)CC[C@]4(C)[C@H]3CC[C@]12C.Cl.Cl.Cl | > 32 | > 32 | > 32 | > 32 | 8 | > 32 | 16 | > 32 | 16 | > 32 | > 32 | > 32 | 8 | > 32 | < 32 | > 32 | > 32 | > 32 | < 32 | 8 | MIC (Staphylococcus aureus [1]): > 32 µg/mL; MIC (Escherichia coli [2]): > 32 µg/mL; MIC (Moraxella catarrhalis [3]): > 32 µg/mL; MIC (Moraxella catarrhalis [8]; read-out: MIC): 32 µg/mL; MIC (Staphylococcus aureus [9]; read-out: MIC): 8 µg/mL; MIC (Escherichia coli [16]): > 32 µg/mL; MIC (Bacillus cereus): > 32 µg/mL; MIC (Escherichia coli [18]; read-out: MIC): < 32 µg/mL; MIC (Pseudomonas aeruginosa): > 32 µg/mL; MIC (Serratia marcescens [19]): > 32 µg/mL; MIC (Bacillus subtilis): 16 µg/mL
2 | C[C@H](CO)[C@H]1CC[C@H]2[C@@H]3CC[C@H]4C[C@H](NCCCNCCCCNCCCN)CC[C@]4(C)[C@H]3CC[C@]12C.Cl.Cl.Cl.Cl | > 32 | > 32 | > 32 | > 32 | 16 | > 32 | 8 | > 32 | 16 | > 32 | > 32 | > 32 | 4 | > 32 | 32 | > 32 | > 32 | > 32 | < 32 | 4 | MIC (Staphylococcus aureus [1]; read-out: MIC): 16 µg/mL; MIC (Escherichia coli [2]; read-out: MIC): < 32 µg/mL; MIC (Moraxella catarrhalis [3]; read-out: MIC): < 32 µg/mL; MIC (Moraxella catarrhalis [8]; read-out: MIC): < 32 µg/mL; MIC (Staphylococcus aureus [9]; read-out: MIC): 16 µg/mL; MIC (Escherichia coli [16]): > 32 µg/mL; MIC (Bacillus cereus; read-out: MIC): < 32 µg/mL; MIC (Escherichia coli [18]; read-out: MIC): < 32 µg/mL; MIC (Pseudomonas aeruginosa): > 32 µg/mL; MIC (Serratia marcescens [19]): > 32 µg/mL; MIC (Bacillus subtilis): 8 µg/mL
3 | C[C@H](CO)[C@H]1CC[C@H]2[C@@H]3CC[C@@H]4C[C@@H](NCCCNCCCCN)CC[C@]4(C)[C@H]3CC[C@]12C.Cl.Cl.Cl | > 32 | > 32 | > 32 | > 32 | 16 | > 32 | 32 | > 32 | 8 | > 32 | > 32 | > 32 | 8 | > 32 | 32 | > 32 | > 32 | > 32 | < 32 | 8 | MIC (Staphylococcus aureus [1]; read-out: MIC): 16 µg/mL; MIC (Escherichia coli [2]): > 32 µg/mL; MIC (Moraxella catarrhalis [3]): > 32 µg/mL; MIC (Moraxella catarrhalis [8]): > 32 µg/mL; MIC (Staphylococcus aureus [9]): > 32 µg/mL; MIC (Escherichia coli [16]; read-out: MIC): < 32 µg/mL; MIC (Bacillus cereus; read-out: MIC): 32 µg/mL; MIC (Escherichia coli [18]): > 32 µg/mL; MIC (Pseudomonas aeruginosa): > 32 µg/mL; MIC (Serratia marcescens [19]): > 32 µg/mL; MIC (Bacillus subtilis): 8 µg/mL
